Key:
D(2) dopamine receptor = D(2) dopamine receptor (Homo sapiens, UniProt P14416)
[1] = target: T1, 5-hydroxytryptamine receptor 3A (Rattus norvegicus, UniProt P35563)
T1 sequence (P35563 whole entry): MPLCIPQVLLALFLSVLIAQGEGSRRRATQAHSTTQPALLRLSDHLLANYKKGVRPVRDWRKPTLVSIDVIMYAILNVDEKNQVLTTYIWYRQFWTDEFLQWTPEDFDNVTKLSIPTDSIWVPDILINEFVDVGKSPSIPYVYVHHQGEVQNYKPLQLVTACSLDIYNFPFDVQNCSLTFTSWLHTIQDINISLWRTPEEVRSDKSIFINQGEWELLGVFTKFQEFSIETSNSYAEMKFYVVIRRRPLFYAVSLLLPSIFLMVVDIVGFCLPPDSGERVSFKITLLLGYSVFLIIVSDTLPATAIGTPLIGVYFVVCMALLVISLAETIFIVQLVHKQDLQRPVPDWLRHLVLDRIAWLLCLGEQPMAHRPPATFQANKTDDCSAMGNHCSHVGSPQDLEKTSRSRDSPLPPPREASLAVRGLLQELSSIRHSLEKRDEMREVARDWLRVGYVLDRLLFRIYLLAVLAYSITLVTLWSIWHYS

D(1A) dopamine receptor = D(1A) dopamine receptor (Homo sapiens, UniProt P21728)
Sequence of D(1A) dopamine receptor (P21728 whole entry): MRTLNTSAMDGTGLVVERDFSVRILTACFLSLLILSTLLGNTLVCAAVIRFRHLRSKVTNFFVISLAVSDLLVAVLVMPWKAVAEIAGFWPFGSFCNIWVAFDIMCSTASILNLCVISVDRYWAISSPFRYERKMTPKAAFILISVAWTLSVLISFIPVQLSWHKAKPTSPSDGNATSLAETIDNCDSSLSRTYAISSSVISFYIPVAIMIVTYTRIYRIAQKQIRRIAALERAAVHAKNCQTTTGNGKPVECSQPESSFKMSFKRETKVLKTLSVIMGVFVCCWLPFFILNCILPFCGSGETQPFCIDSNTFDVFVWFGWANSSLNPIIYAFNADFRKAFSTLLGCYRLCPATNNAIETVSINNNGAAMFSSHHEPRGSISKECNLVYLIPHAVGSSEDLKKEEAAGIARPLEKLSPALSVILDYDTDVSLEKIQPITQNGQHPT

[2] = target: Beta-2 adrenergic receptor (Homo sapiens, UniProt P07550)
Sequence of Beta-2 adrenergic receptor (P07550 whole entry): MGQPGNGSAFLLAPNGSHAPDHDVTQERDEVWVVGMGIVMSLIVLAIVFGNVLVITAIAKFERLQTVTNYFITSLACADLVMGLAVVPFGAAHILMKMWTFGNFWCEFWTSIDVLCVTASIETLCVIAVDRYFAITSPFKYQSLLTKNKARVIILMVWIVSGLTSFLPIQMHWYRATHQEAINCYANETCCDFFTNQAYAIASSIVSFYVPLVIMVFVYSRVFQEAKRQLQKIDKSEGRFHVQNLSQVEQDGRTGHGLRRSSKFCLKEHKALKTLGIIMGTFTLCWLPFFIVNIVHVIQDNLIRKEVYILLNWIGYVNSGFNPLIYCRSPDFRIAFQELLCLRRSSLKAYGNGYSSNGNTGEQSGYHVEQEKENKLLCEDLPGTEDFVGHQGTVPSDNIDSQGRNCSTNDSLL

[3] = target: 5-hydroxytryptamine receptor 1D (Cavia porcellus, UniProt Q60484)
Sequence of 5-hydroxytryptamine receptor 1D (Q60484 whole entry): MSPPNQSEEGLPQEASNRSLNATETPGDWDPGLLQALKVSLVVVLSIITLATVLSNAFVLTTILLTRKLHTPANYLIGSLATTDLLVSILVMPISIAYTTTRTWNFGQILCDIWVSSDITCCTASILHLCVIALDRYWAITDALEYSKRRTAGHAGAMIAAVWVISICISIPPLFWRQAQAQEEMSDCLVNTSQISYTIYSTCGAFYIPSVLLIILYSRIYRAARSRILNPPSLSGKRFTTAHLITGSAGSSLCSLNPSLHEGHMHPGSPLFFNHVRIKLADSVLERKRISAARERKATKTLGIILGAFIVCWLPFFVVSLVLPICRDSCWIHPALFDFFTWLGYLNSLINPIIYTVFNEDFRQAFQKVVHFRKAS

D(3) dopamine receptor = D(3) dopamine receptor (Homo sapiens, UniProt P35462)
Sequence of D(3) dopamine receptor (P35462 as listed by the source): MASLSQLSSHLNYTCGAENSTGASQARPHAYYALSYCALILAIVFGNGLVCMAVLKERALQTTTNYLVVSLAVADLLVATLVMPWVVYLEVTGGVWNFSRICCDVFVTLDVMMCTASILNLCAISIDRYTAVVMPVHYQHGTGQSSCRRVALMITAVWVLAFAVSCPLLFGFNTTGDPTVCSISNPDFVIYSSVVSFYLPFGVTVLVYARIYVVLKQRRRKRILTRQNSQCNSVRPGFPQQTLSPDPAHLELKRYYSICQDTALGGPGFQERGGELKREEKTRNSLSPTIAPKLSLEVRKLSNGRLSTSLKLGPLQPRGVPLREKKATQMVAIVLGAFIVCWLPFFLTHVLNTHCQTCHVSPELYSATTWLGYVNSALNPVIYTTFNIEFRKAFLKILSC

[4] = target: T2, Adrenergic alpha2 receptor (Mesocricetus auratus, UniProt Q60533)
T2 sequence (Q60533 whole entry): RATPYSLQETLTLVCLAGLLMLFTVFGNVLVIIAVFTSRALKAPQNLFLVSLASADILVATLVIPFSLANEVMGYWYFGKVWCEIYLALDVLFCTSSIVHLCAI

[5] = target: Beta-1 adrenergic receptor (Homo sapiens, UniProt P08588)
Sequence of Beta-1 adrenergic receptor (P08588 whole entry): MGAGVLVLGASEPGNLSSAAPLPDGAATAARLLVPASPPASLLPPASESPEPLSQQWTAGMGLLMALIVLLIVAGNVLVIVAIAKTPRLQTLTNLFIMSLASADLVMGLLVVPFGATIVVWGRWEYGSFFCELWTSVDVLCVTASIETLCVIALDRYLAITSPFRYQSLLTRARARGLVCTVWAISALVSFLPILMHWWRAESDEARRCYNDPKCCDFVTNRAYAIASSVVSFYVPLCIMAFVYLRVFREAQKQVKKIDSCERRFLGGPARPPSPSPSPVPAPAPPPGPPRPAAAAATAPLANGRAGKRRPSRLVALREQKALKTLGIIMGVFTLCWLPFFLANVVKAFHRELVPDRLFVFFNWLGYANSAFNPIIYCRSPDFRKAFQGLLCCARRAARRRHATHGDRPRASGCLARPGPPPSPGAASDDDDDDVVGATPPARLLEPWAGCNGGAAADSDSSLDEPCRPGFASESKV

[6] = target: 5-hydroxytryptamine receptor 2A (Homo sapiens, UniProt P28223)
Sequence of 5-hydroxytryptamine receptor 2A (P28223 whole entry): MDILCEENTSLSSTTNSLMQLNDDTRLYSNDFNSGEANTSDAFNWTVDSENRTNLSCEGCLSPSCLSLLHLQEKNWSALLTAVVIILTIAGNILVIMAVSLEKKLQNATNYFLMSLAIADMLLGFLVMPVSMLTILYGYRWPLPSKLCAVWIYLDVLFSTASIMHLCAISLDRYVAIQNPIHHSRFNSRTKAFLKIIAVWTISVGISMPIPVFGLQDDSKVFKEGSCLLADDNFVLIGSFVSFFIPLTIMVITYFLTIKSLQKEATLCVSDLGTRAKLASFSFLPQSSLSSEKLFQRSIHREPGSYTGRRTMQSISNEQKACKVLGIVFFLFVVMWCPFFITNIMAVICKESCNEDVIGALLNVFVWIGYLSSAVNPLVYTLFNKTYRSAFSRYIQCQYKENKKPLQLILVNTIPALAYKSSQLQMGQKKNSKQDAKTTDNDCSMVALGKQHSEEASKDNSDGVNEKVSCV

[7] = target: T3, 5-hydroxytryptamine receptor 2C (Sus scrofa, UniProt G7ZKZ7)
T3 sequence (G7ZKZ7 whole entry): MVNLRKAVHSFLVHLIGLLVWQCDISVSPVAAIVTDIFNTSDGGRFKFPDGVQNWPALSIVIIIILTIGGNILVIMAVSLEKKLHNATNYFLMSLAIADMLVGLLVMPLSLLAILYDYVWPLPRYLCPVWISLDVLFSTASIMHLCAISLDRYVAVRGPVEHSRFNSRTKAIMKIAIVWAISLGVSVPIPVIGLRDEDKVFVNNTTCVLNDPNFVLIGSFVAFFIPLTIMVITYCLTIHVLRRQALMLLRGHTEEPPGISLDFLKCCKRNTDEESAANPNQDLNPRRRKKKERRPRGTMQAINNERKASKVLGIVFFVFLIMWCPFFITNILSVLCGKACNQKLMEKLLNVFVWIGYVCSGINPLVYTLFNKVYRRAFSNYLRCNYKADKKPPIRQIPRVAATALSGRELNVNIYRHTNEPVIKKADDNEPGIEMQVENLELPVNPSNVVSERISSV

[8] = target: 5-hydroxytryptamine receptor 1E (Homo sapiens, UniProt P28566)
Sequence of 5-hydroxytryptamine receptor 1E (P28566 whole entry): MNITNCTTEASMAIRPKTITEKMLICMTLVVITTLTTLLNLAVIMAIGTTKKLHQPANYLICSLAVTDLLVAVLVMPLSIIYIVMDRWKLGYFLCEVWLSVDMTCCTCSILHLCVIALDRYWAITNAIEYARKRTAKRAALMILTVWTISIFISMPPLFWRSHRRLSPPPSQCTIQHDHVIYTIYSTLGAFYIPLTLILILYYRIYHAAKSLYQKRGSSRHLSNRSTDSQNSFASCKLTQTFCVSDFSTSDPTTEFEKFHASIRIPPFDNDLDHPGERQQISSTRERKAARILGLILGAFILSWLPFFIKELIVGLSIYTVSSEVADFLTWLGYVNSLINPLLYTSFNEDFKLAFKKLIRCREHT

[9] = target: T4, Gamma-aminobutyric acid receptor subunit alpha-1 (Homo sapiens, UniProt P14867)
T4 sequence (P14867 whole entry): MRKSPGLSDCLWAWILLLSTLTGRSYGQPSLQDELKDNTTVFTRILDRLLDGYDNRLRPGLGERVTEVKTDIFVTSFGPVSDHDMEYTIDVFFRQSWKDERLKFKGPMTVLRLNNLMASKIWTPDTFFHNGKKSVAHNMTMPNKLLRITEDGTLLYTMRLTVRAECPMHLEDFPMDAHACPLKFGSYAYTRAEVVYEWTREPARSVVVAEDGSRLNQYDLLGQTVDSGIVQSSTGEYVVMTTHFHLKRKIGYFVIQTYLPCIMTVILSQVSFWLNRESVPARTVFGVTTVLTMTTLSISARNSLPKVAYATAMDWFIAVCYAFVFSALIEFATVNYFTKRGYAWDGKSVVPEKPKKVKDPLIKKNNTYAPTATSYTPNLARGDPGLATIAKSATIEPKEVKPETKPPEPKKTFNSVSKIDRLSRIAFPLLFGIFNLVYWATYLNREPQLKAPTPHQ

Adenosine receptor A1 = target: T5, Adenosine receptor A1 (Rattus norvegicus, UniProt P25099)
T5 sequence (P25099 whole entry): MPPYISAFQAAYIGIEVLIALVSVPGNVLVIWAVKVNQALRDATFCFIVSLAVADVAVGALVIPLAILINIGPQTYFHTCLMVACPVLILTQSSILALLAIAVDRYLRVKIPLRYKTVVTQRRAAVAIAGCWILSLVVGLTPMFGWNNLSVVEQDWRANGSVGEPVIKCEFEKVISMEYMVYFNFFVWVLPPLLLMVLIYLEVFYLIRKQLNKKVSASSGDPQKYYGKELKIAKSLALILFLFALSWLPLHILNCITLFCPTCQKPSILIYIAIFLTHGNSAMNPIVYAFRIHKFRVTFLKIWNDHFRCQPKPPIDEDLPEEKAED

[10] = target: Gamma-aminobutyric acid receptor subunit alpha-1 (Rattus norvegicus, UniProt P62813)
Sequence of Gamma-aminobutyric acid receptor subunit alpha-1 (Rattus norvegicus, UniProt P62813) (P62813 whole entry): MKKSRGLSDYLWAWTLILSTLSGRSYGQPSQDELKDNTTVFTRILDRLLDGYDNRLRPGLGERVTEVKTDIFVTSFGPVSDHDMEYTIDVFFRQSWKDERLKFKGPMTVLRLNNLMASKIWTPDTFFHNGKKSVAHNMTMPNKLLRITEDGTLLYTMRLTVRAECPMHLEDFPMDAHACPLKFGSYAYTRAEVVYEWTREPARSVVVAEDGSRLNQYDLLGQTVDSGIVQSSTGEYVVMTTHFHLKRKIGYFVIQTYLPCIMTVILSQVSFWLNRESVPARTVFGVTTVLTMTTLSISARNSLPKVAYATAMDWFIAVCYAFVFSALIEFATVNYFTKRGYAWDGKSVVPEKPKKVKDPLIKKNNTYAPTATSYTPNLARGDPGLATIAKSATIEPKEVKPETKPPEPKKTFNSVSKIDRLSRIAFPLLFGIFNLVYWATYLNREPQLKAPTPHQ

[11] = target: T6, Solute carrier family 22 member 1 (Rattus norvegicus, UniProt Q63089)
T6 sequence (Q63089 whole entry): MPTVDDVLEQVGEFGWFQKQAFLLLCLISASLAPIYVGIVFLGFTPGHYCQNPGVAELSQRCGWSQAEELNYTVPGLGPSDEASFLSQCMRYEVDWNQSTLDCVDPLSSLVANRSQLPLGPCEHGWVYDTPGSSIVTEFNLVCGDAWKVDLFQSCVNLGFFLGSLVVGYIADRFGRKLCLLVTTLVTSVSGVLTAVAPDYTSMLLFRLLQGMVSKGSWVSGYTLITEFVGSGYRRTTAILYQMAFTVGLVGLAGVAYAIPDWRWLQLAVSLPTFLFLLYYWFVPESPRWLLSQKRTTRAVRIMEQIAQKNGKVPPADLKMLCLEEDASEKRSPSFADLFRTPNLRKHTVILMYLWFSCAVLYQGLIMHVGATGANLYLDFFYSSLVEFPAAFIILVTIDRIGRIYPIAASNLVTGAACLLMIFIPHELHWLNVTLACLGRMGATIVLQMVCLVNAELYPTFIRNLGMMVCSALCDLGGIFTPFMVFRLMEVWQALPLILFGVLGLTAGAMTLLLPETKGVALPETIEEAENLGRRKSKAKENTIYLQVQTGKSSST

Measured: Ki

Sequence of D(2) dopamine receptor (P14416 whole entry): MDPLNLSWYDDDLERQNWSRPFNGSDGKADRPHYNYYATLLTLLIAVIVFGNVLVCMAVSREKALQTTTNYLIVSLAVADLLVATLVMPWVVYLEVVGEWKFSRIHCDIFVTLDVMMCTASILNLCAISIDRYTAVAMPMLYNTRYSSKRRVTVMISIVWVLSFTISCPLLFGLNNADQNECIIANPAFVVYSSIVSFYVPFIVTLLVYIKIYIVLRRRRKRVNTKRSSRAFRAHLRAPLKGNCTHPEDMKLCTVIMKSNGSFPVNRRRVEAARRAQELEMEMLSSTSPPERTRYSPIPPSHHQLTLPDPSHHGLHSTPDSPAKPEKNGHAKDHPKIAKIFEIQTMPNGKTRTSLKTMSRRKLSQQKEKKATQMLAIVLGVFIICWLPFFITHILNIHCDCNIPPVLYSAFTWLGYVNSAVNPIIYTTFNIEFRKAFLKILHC

CCCCN1CCC(COC(=O)c2cc(Cl)c(N)c3c2OCCO3)CC1 [CAS_121881]
> 10 µM: D(2) dopamine receptor | [3] | [8] | [9] | Adenosine receptor A1 | [10]
126 nM: [7]
1000 nM: D(1A) dopamine receptor | [2] | D(3) dopamine receptor | [4] | [5] | [6] | [11]
398 nM: [1]
